Source: the supplement of paper PMC10307832

How the values were obtained:
Assay in all cases: relative viability (nuclei count vs DMSO), 5 days (fraction); higher = more cells survive
[1] = compound: CN1CCC(CNc2ccc3ncc(-c4cccc(OC(F)(F)F)c4)n3n2)CC1 [SGI-1776] + C[C@@H](Oc1cc(-c2cnn(C3CCNCC3)c2)cnc1N)c1c(Cl)ccc(F)c1Cl [Crizotinib] (partner 1 µM)
Summary of the method: (§1)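 Medians of duplicate plates are given as relative viability. That measure is the nuclei count in treated wells divided by the count in vehicle wells. Counts were taken on 4× images of lung cancer cell lines in 1536-well plates, 5 days after pin-tool dosing the day after seeding with one drug alone or a fixed anchor-drug dose plus five library-drug doses (not always all listed) in √10 steps.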

[2] = compound: C1COCCN1C2=NC(=NC3=C2OC4=C3C=CC=N4)C5=CC(=CC=C5)NC(=O)C6=CN=C(C=C6)N + CC(=O)c1c(C)c2cnc(Nc3ccc(N4CCNCC4)cn3)nc2n(C2CCCC2)c1=O [Palbociclib] (partner 0.5 µM)
Summary of the method: as §1

[3] = compound: Nc1ccccc1NC(=O)c1ccc(CNC(=O)OCc2cccnc2)cc1 [Entinostat] + CC(C)C[C@H](NC(=O)[C@H](Cc1ccccc1)NC(=O)c1cnccn1)B(O)O [Bortezomib] (partner 0.002 µM)
Summary of the method: as §1

[4] = compound: C1COCCN1C2=NC(=NC3=C2OC4=C3C=CC=N4)C5=CC(=CC=C5)NC(=O)C6=CN=C(C=C6)N + N=C(N)NC(=N)NCCc1ccccc1 [Phenformin] (partner 250 µM)
Summary of the method: as §1

Cell Line | relative viability ([1]; first compound 0.08 µM) | relative viability ([1]; first compound 0.8 µM) | relative viability ([1]; first compound 2.53 µM) | relative viability ([1]; first compound 8 µM) | relative viability ([2]; first compound 0.02 µM) | relative viability ([2]; first compound 0.06325 µM) | relative viability ([2]; first compound 0.2 µM) | relative viability ([2]; first compound 0.6325 µM) | relative viability ([2]; first compound 2 µM) | relative viability ([3]; first compound 0.02 µM) | relative viability ([3]; first compound 0.06325 µM) | relative viability ([3]; first compound 0.2 µM) | relative viability ([3]; first compound 0.6325 µM) | relative viability ([3]; first compound 2 µM) | relative viability ([4]; first compound 0.02 µM) | relative viability ([4]; first compound 0.06325 µM) | relative viability ([4]; first compound 0.2 µM) | relative viability ([4]; first compound 0.6325 µM) | relative viability ([4]; first compound 2 µM)
NCI-H2087 | 0.724 | 0.907 | 1.19 | 0.758 | 0.211 | 0.223 | 0.235 | 0.219 | 0.194 | 0.883 | 0.837 | 0.761 | 0.425 | 0.274 | 0.515 | 0.595 | 0.495 | 0.447 | 0.31
NCI-H520 | 0.773 | 0.828 | 0.728 | 0.473 | 0.206 | 0.236 | 0.226 | 0.207 | 0.189 | 0.602 | 0.667 | 0.558 | 0.195 | 0.161 | 0.597 | 0.631 | 0.588 | 0.479 | 0.403
Calu-6 | 0.806 | 0.624 | 0.402 | 0.289 | – | – | – | – | – | 1.02 | 1.02 | 0.944 | 0.69 | 0.504 | – | – | – | – | –
SK-LU-1 | 1.04 | 0.833 | 0.756 | 0.352 | 0.382 | 0.382 | 0.371 | 0.367 | 0.359 | 1.34 | 1.4 | 0.988 | 0.537 | 0.305 | 0.56 | 0.488 | 0.513 | 0.567 | 0.349
LCLC-97TM1 | 0.383 | 0.384 | 0.342 | 0.198 | 0.226 | 0.26 | 0.236 | 0.323 | 0.162 | 0.69 | 0.912 | 0.912 | 0.355 | 0.128 | 0.446 | 0.475 | 0.409 | 0.452 | 0.419
HCC-15 | 0.819 | 0.816 | 0.761 | 0.764 | 0.742 | 0.775 | 0.67 | 0.682 | 0.574 | 1.02 | 0.945 | 0.876 | 0.403 | 0.413 | 0.546 | 0.528 | 0.462 | 0.388 | 0.25
H3255 | 1.03 | 1.01 | 0.896 | 0.62 | 0.308 | 0.308 | 0.306 | 0.308 | 0.305 | 0.797 | 0.844 | 0.577 | 0.401 | 0.28 | 0.362 | 0.357 | 0.368 | 0.326 | 0.338
NCI-H1915 | 0.945 | 0.864 | 0.833 | 0.918 | 0.516 | 0.573 | 0.512 | 0.613 | 0.48 | 1.05 | 0.959 | 0.998 | 0.644 | 0.638 | 0.338 | 0.383 | 0.397 | 0.392 | 0.302
NCI-H1650 | 0.86 | 0.999 | 0.559 | 0.231 | 0.336 | 0.321 | 0.274 | 0.39 | 0.287 | 0.194 | 0.226 | 0.2 | 0.214 | 0.214 | 0.358 | 0.402 | 0.413 | 0.355 | 0.237
NCI-H647 | 1.16 | 0.842 | 0.992 | 0.291 | 0.408 | 0.433 | 0.38 | 0.279 | 0.25 | 1.02 | 1.01 | 0.869 | 0.216 | 0.0717 | 0.574 | 0.768 | 0.466 | 0.519 | 0.195
NCI-H522 | – | – | – | – | 0.798 | 0.984 | 0.884 | 0.743 | 0.838 | – | – | – | – | – | 0.638 | 0.701 | 0.63 | 1.49 | 0.599
LK-2 | 0.228 | 0.228 | 0.258 | 0.25 | 0.71 | 0.646 | 0.82 | 0.501 | 0.356 | – | – | – | – | – | 0.538 | 0.551 | 0.249 | 0.2 | 0.252
NCI-H358 | 0.53 | 0.393 | 0.244 | 0.292 | 0.119 | 0.14 | 0.137 | 0.145 | 0.108 | – | – | – | – | – | – | 0.36 | 0.269 | 0.248 | 0.169
SK-MES-1 | 1.11 | 0.947 | 1.02 | 0.979 | 0.314 | 0.329 | 0.294 | 0.276 | 0.312 | – | – | – | – | – | 0.663 | 0.766 | 0.729 | 0.618 | 0.462
NCI-H1648 | – | – | – | – | 0.252 | 0.252 | 0.255 | 0.212 | 0.222 | – | – | – | – | – | – | – | – | – | –
NCI-H1703 | 1.17 | 0.521 | 0.272 | 0.124 | – | – | – | – | – | 0.314 | 0.383 | 0.308 | 0.265 | 0.149 | – | – | – | – | –
EBC-1 | 0.21 | 0.175 | 0.186 | 0.123 | – | – | – | – | – | 0.564 | 0.599 | 0.293 | 0.196 | 0.176 | – | – | – | – | –
NCI-H1395 | – | – | – | – | 0.602 | 0.597 | 0.617 | 0.592 | 0.645 | – | – | – | – | – | 0.396 | 0.451 | 0.461 | 0.415 | 0.384
NCI-H1563 | 0.833 | 0.888 | 0.906 | 0.785 | – | – | – | – | – | 0.841 | 0.843 | 0.908 | 0.722 | 0.65 | 0.647 | 0.636 | 0.654 | 0.593 | 0.532
NCI-H596 | 1.08 | 1.06 | 0.945 | 0.854 | – | – | – | – | – | 1.09 | 1.16 | 1 | 0.974 | 0.902 | 0.768 | 0.916 | 0.754 | 0.598 | 0.61
NCI-H2170 | 1.13 | 1.28 | 1.17 | 0.969 | 0.405 | 0.395 | 0.407 | 0.422 | 0.275 | – | – | – | – | – | 0.427 | 0.439 | 0.408 | 0.407 | 0.388
NCI-H1793 | – | – | – | – | 0.306 | 0.335 | 0.317 | 0.218 | 0.255 | – | – | – | – | – | 0.393 | 0.483 | 0.404 | 0.372 | 0.277
